Data set [1] is described as follows: Tablet hardness (Krämer UTS4 1, force needed to break a tablet axially). Particulars: tablets of example 2 with the named calcium salt, Prosolv SMCC90 binder; in words. The data set is classed as physicochemical. Here is the method:
For compressing the tablets, a single punch press (Korsch XP-1, available at Korsch, Berlin) was used.
Tablet hardness was then measured using a Krämer UTS4 1 apparatus.
Said four tablet mixtures were compressed into tablets, similar to example 2. Tablet hardness was then measured.
Tablet hardness was measured as described in USP <1217> and EP<2.9.8.> with a Krämer UTS4 1 tester (Kraemer Elektronik GmbH, Darmstadt, Germany). The inventors measured the force needed to break a tablet axially. Presented are the average values of 10 measurements.

For data set [2] the following is noted: compared to calcium carbonate; cited from earlier work.

On to anhydrous calcium citrate, for which, in data set [1], the “tablet hardness (compression profiles, FIG. 1)” value is on record as “a lot worse”.

Take `O=C([O-])CC(O)(CC(=O)[O-])C(=O)[O-].O=C([O-])CC(O)(CC(=O)[O-])C(=O)[O-].[Ca+2].[Ca+2].[Ca+2]` [calcium citrate]: the bioavailability result in data set [2] is given as “superior bioavailability than calcium carbonate”.
